Experimental data published in patent US8912121B2, “Herbicidal compositions comprising 4-amino-3-chloro-5-fluoro-6-(4-chloro-2-fluoro-3-methoxyphenyl)pyridine-2-carboxylic acid or a derivative thereof and certain PS II inhibitors” (Dow Agrosciences LLC, priority 2012, dated 2014).

What was measured:
Assay in all cases: Pre-emergence soil-applied mixtures, greenhouse
[1] = test system: SETVI (Setaria viridis, green foxtail); assay type: in vivo, Setaria viridis (L.) Beauv.; settings: Diuron 280 g ai/ha
Text: (§1) Seeds or nutlets of the desired test plant species were planted in a soil matrix prepared by mixing a loam soil (32 percent silt, 23 percent clay, and 45 percent sand, with a pH of about 6.5 and an organic matter content of about 1.9 percent) and calcareous grit in an 80 to 20 ratio. The soil matrix was contained in plastic pots with a volume of 1 quart and a surface area of 83.6 square centimeters (cm^2).
(§2) Treatments consisted of the benzyl ester of 4-amino-3-chloro-5-fluoro-6-(4-chloro-2-fluoro-3-methoxy-phenyl)pyridine-2-carboxylic acid (compound A) formulated as an SC (suspension concentrate) and various herbicidal components alone and in combination. Forms of compound A were applied on an acid equivalent basis.
(§3) Other herbicidal components were applied on an acid equivalent or active ingredient basis and included the PSII-inhibiting herbicides, atrazine formulated as Atrazine® 90WDG, metribuzin formulated as Metribuzin 75DF, simazine formulated as Princep Caliber 90, tebuthiuron formulated as Spike 80DF, cyanazine (technical grade material), hexazinone (technical grade material), linuron (technical grade material), terbuthylazine (technical grade material), and diuron formulated as Diuron 4L.
(§4) Treatment requirements were calculated based upon the rates being tested, the concentration of active ingredient or acid equivalent in the formulation, and a 12 mL application volume at a rate of 187 L/ha.
(§5) For treatments comprised of formulated compounds, measured amounts of compounds were placed individually in 25 mL glass vials and diluted in a volume of 1.25% (v/v) Agri-Dex® crop oil concentrate (COC) to obtain 12× stock solutions. […]
(§6) For treatments comprised of formulated and technical compounds, weighed amounts of the technical materials can be placed individually in 25 mL glass vials and dissolved in a volume of 97:3 (v/v) acetone/DMSO to obtain 12× stock solutions, and measured amounts of the formulated compounds can be placed individually in 25 mL glass vials and diluted in a volume of 1.5% (v/v) COC or water to obtain 12× stock solutions. […]

[2] = test system: SETFA (Setaria faberi, giant foxtail); assay type: in vivo, Setaria faberi Herrm.; settings: Diuron 280 g ai/ha; 29 DAA
Text: as §1, §2, §3, §4
(§7) For treatments comprised of formulated compounds, measured amounts of compounds were placed individually in 25 mL glass vials and diluted in a volume of 1.25% (v/v) Agri-Dex® crop oil concentrate (COC) to obtain 12× stock solutions. […] Application solutions were prepared by adding an appropriate amount of each stock solution (e.g., 1 mL) and diluted to the appropriate final concentrations with the addition of 10 mL of an aqueous mixture of 1.25% (v/v) COC so that the final spray solutions contained 1.25% (v/v) COC.
(§8) For treatments comprised of technical compounds, weighed amounts can be placed individually in 25 mL glass vials and dissolved in a volume of 97:3 (v/v) acetone/DMSO to obtain 12× stock solutions. […] Application solutions can be prepared by adding an appropriate amount of each stock solution (e.g., 1 mL) and diluted to the appropriate final concentrations with the addition of 10 mL of an aqueous mixture of 1.5% (v/v) COC so that the final spray solutions contain 1.25% (v/v) COC. When technical materials are used, the concentrated stock solutions can be added to the spray solutions so that the final acetone and DMSO concentrations of the application solutions are 16.2% and 0.5%, respectively.
(§9) For treatments comprised of formulated and technical compounds, weighed amounts of the technical materials can be placed individually in 25 mL glass vials and dissolved in a volume of 97:3 (v/v) acetone/DMSO to obtain 12× stock solutions, and measured amounts of the formulated compounds can be placed individually in 25 mL glass vials and diluted in a volume of 1.5% (v/v) COC or water to obtain 12× stock solutions. […] Application solutions can be prepared by adding an appropriate amount of each stock solution (e.g., 1 mL) and diluted to the appropriate final concentrations with the addition of an appropriate amount of an aqueous mixture of 1.5% (v/v) COC so that the final spray solutions contain 1.25% (v/v) COC. As required, additional water and/or 97:3 (v/v) acetone/DMSO can be added to individual application solutions so that the final acetone and DMSO concentrations of the application solutions being compared are 8.1% and 0.25%, respectively.
(§10) All stock solutions and applications solutions were visually inspected for compound compatibility prior to application. Spray solutions were applied to the soil with an overhead Mandel track sprayer equipped with a 8002E nozzles calibrated to deliver 187 L/ha over an application area of 0.503 m^2 at a spray height of 18 inches (46 cm) above average pot height. […]

[3] = test system: ABUTH (Abutilon theophrasti, velvetleaf); assay type: in vivo, Abutilon theophrasti Medik.
Text: as §1, §2, §3, §4, §7, §8
as §9, with “As required, additional water and/or 97:3 (v/v) acetone/DMSO can be added to individual application solutions so that the final acetone and DMSO concentrations of the application solutions being compared are 8.1% and 0.25%, respectively.” left out

[4] = test system: ECHCO (Echinochloa colonum, junglerice); assay type: in vivo, Echinochloa colonum (L.) Link; settings: Diuron 280 g ai/ha
Text: as §1, §2, §3, §4, §5, §6

[5] = test system: BRAPP (Brachiaria platyphylla, broadleaf signalgrass); assay type: in vivo, Brachiaria platyphylla (Groseb.) Nash; settings: 28 DAA
Text: as §1, §2, §3, §4, §7, §8, §9, §10

[6] = test system: ECHCG (Echinochloa crus-galli, barnyardgrass); assay type: in vivo, Echinochloa crus-galli (L.) P. Beauv.
Text: as §1, §2, §3, §4, §7
For treatments comprised of technical compounds, weighed amounts can be placed individually in 25 mL glass vials and dissolved in a volume of 97:3 (v/v) acetone/DMSO to obtain 12× stock solutions. […]
as §6

Question: Which “Visual Weed Control (%)-29 DAA SETVI Obs” value [1] does the source give for `CN(C)C(=O)Nc1ccc(Cl)c(Cl)c1` [Diuron, N′-(3,4-dichlorophenyl)-N,N-dimethylurea, reference compound] here?
Answer: Its value is 0%.

Question: What about the “Visual Weed Control (%)-29 DAA SETFA Obs” value [2] of the same compound?
Answer: Its value is 5%.

Question: What about the “Visual Weed Control (%)-29 DAA ABUTH Obs” value ([3]; Diuron 280 g ai/ha) of the same compound?
Answer: Its value is 30%.

Question: And the “Visual Weed Control (%)-29 DAA ABUTH Obs” value ([3]; Diuron 560 g ai/ha)?
Answer: The value was 70%.

Question: And the “Visual Weed Control (%)-29 DAA ABUTH Obs” value ([3]; Diuron 1120 g ai/ha)?
Answer: Its value is 90%.

Question: What about the “Visual Weed Control (%)-29 DAA ECHCO Obs” value [4] of the same compound?
Answer: Its value is 15%.

Question: What about the “Visual Weed Control (%)-28 DAA BRAPP Obs” value ([5]; Diuron 280 g ai/ha) of the same compound?
Answer: Its value is 0%.

Question: What about the “Visual Weed Control (%)-28 DAA BRAPP Obs” value ([5]; Diuron 560 g ai/ha) of the same compound?
Answer: Its value is 35%.

Question: What about the “Visual Weed Control (%)-28 DAA ECHCG Obs” value ([6]; Diuron 280 g ai/ha) of the same compound?
Answer: Its value is 25%.

Question: And the “Visual Weed Control (%)-28 DAA ECHCG Obs” value ([6]; Diuron 560 g ai/ha)?
Answer: Its value is 65%.
